Values quoted from earlier work as cited in patent US10427251B2, “Fine silver particle dispersion, fine silver particles, and method for producing same” (BANDO CHEMICAL INDUSTRIES, LTD., priority 2014, dated 2019).

Details: n-octanol/water

SMILES | partition coefficient log P
CCCN [propylamine] | 0.5
CCOCCCN [3-ethoxypropylamine] | −0.1
CCCCN [butylamine] | 1.0
NCCCCCO [pentanolamine] | −0.3
COCCN [2-methoxyethylamine] | −0.9
NCCCN [1,3-propanediamine] | −1.4
CCCCCCN [hexylamine] | 2.1
COCCCN [3-methoxypropylamine] | −0.5
CCN [ethylamine] | −0.3
